Test results reported in paper PMC7406636, “In vivo and in silico characterization of apocynin in reducing organ oxidative stress: A pharmacokinetic and pharmacodynamic study” (Pharmacology Research & Perspectives, 2020).

Test: Time-dependent distribution of apocynin in plasma, urine and tissues after iv bolus injection (HPLC-MS/MS)
Type: in vivo, mouse
Conditions: plasma, brain and liver samples after iv bolus injection of apocynin, HPLC-MS/MS
Experimental: All studies were performed in accordance with the protocols approved by the Home Office under the Animals (Scientific Procedures) Act 1986, UK. For the PKPD study, male CD1 mice (Charles River Ltd) at 12 weeks of age with a body weight range between 25 and 30 g were used for the study. Mice were fasted 12 hours before bolus iv injection of apocynin at 5 mg/kg body weight (dosing volume 5 mL/kg) via a lateral tail vein. Control mice were injected with vehicle (solvent of apocynin) at each time points. Four mice/per time points were sacrificed at 0, 1, 2.5, 5, 15, 30, 60 minutes and then at 3, 6, 12, and 24 hours after iv injection of apocynin. Blood samples were collected and centrifuged at 2000 g, 4°C for 10 minutes for plasma collection. Urine samples were collected from bladders. Tissues were harvested for further experiments.
The detection of apocynin in tissue sample was performed as described previously with some modifications. ^17 In brief, apocynin was detected using an Accela HPLC coupled to a linear ion‐trap tandem mass spectrometry (LTQ‐Orbitrap XL; Thermo‐Fisher Scientific) (HPLC‐MS/MS) in the negative ion mode. Phenacetin (500 ng/mL) was used as an internal standard in every vial. A reversed‐phase 50 × 2.1 mm ID, […], 175 Å pore C18 Hypersil Gold column (Thermo Scientific) was used with injection volume set at 5 µL for the separation of apocynin and phenacetin. Calibration curve used for PK analysis was constructed by spiking apocynin in mouse plasma using eight calibrators ranging from 1 to 10000 ng/mL with great reproducibility and R ^2 ≥ 0.996 for subsequent 5 separate experiments on different days. […] Limit of detection for apocynin was set up at signal to noise ratio ≥ 3, ^18 which is 1 ng/mL in our system. The limitation of quantification was set up at signal to noise ratio ≥ 10, which is 10 ng/mL in our system. Orbitrap component was used for the full scan spectra of apocynin and diapocynin.

diapocynin detection as metabolite in samples: not detected
SMILES: COc1cc(C(C)=O)cc(-c2cc(C(C)=O)cc(OC)c2O)c1O [Diapocynin]
